# Reference: article PMC9959982 (International Journal of Molecular Sciences, 2023)
# Read-outs that look alike come from different tables or passages of the source.
# Columns and labels:
# [1] = test system: EV-A71 BrCr strain; details: Figure 1; read-out: EV71 EC50; cited from earlier work
# [2] = test system: HIV-1 (NL4.3); details: printed in Figure 1, prototypes of previous work; cited from earlier work
# [3] = test system: EV-A71 VP1_P246S; format: cell-based, Enterovirus A71; details: VP1_P246S mutant
# [4] = test system: rhabdosarcoma (RD) cells; assay: Adverse effect on uninfected RD cells (MTS/PMS); details: RD cells
# [5] = test system: MT-4 cells; assay: Cytotoxicity in MT-4 cells (MTS/PES); format: cell-based; details: 50% reduction in cell viability, 5 days
# [6] = test system: EV-A71 VP1_S184T; format: cell-based, Enterovirus A71; details: VP1_S184T mutant
# [7] = test system: EV-A71 VP1_S184T_P246S; format: cell-based, Enterovirus A71; details: VP1_S184T_P246S double mutant
# [8] = Adverse effect on uninfected RD cells (MTS/PMS); details: human, uninfected rhabdosarcoma (RD) cells
# [9] = test system: HIV-1 (NL4.3); assay: microbe, parasite or virus in culture; format: cell-based; details: for EC50: virus-induced cytopathic effect reduced by 50%
# [10] = Cytotoxicity in MT-4 cells (MTS/PES); format: cell-based; details: human, 50% reduction in cell viability
# [11] = test system: HIV-2 (ROD); assay: Inhibition of HIV-induced cytopathic effect in MT-4 cells, HIV-2; format: cell-based
# [12] = test system: EV-A71 BrCr strain; assay: Virus-induced cell death assay, EV-A71 BrCr lab strain in RD cells; format: cell-based, Enterovirus A71; details: for EC50: EV-A71 BrCr (wild type)
# [13] = in vitro; details: human
# [14] = Human immunodeficiency virus 1, MT4, MT-4 cells
# [15] = Human immunodeficiency virus 2, MT4, virus-induced cytopathic effect reduced by 50%
# [16] = Enterovirus A, EVA71, RD, RD cells
compound,measurement,setting,value
O=C(CCC(CCC(=O)NC(Cc1c(-c2cc(C(=O)O)cc(C(=O)O)c2)[nH]c2ccccc12)C(=O)O)(CCC(=O)NC(Cc1c(-c2cc(C(=O)O)cc(C(=O)O)c2)[nH]c2ccccc12)C(=O)O)[N+](=O)[O-])NC(Cc1c(-c2cc(C(=O)O)cc(C(=O)O)c2)[nH]c2ccccc12)C(=O)O (stereo not shown) [AL-470],EC50,[1],350 ± 30 nM
same,EC50,[2],270 ± 120 nM
O=C(CCOCC(COCCC(=O)NC(Cc1c(CCCNC(=O)Nc2cc(C(=O)O)cc(C(=O)O)c2)[nH]c2ccccc12)C(=O)O)(COCCC(=O)NC(Cc1c(CCCNC(=O)Nc2cc(C(=O)O)cc(C(=O)O)c2)[nH]c2ccccc12)C(=O)O)COCCC(=O)NC(Cc1c(CCCNC(=O)Nc2cc(C(=O)O)cc(C(=O)O)c2)[nH]c2ccccc12)C(=O)O)NC(Cc1c(CCCNC(=O)Nc2cc(C(=O)O)cc(C(=O)O)c2)[nH]c2ccccc12)C(=O)O (stereo not shown) [Compound 23],EC50,[3],220 ± 10 nM
same,CC50,[4],> 50 µM
same,CC50,[5],> 50 µM
same,EC50,[6],410 ± 30 nM
same,EC50,[7],580 ± 200 nM
O=C(CCOCC(COCCC(=O)NC(Cc1c(CCCCCNC(=O)Nc2cc(C(=O)O)cc(C(=O)O)c2)[nH]c2ccccc12)C(=O)O)(COCCC(=O)NC(Cc1c(CCCCCNC(=O)Nc2cc(C(=O)O)cc(C(=O)O)c2)[nH]c2ccccc12)C(=O)O)COCCC(=O)NC(Cc1c(CCCCCNC(=O)Nc2cc(C(=O)O)cc(C(=O)O)c2)[nH]c2ccccc12)C(=O)O)NC(Cc1c(CCCCCNC(=O)Nc2cc(C(=O)O)cc(C(=O)O)c2)[nH]c2ccccc12)C(=O)O (stereo not shown) [Compound 24],CC50,[4],> 100 µM
same,CC50,[5],30.9 ± 0.98 µM
O=C(CCOCC(COCCC(=O)NC(Cc1c(CCCCCCCCNC(=O)Nc2cc(C(=O)O)cc(C(=O)O)c2)[nH]c2ccccc12)C(=O)O)(COCCC(=O)NC(Cc1c(CCCCCCCCNC(=O)Nc2cc(C(=O)O)cc(C(=O)O)c2)[nH]c2ccccc12)C(=O)O)COCCC(=O)NC(Cc1c(CCCCCCCCNC(=O)Nc2cc(C(=O)O)cc(C(=O)O)c2)[nH]c2ccccc12)C(=O)O)NC(Cc1c(CCCCCCCCNC(=O)Nc2cc(C(=O)O)cc(C(=O)O)c2)[nH]c2ccccc12)C(=O)O (stereo not shown) [Compound 25],CC50,[4],> 100 µM
same,CC50,[5],> 50 µM
O=C(O)CCCc1[nH]c2ccccc2c1C[C@H](NC(=O)CCOCC(COCCC(=O)N[C@@H](Cc1c(CCCC(=O)O)[nH]c2ccccc12)C(=O)O)(COCCC(=O)N[C@H](Cc1c(CCCC(=O)O)[nH]c2ccccc12)C(=O)O)COCCC(=O)N[C@H](Cc1c(CCCC(=O)O)[nH]c2ccccc12)C(=O)O)C(=O)O [Compound 32],CC50,[4],> 100 µM
same,CC50,[5],> 50 µM
O=C(O)CCCCCCc1[nH]c2ccccc2c1C[C@H](NC(=O)CCOCC(COCCC(=O)N[C@@H](Cc1c(CCCCCCC(=O)O)[nH]c2ccccc12)C(=O)O)(COCCC(=O)N[C@H](Cc1c(CCCCCCC(=O)O)[nH]c2ccccc12)C(=O)O)COCCC(=O)N[C@H](Cc1c(CCCCCCC(=O)O)[nH]c2ccccc12)C(=O)O)C(=O)O [Compound 33],CC50,[4],> 100 µM
same,CC50,[5],> 50 µM
O=C(CCOCC(COCCC(=O)Nc1cc(C(=O)O)cc(C(=O)O)c1)(COCCC(=O)Nc1cc(C(=O)O)cc(C(=O)O)c1)COCCC(=O)Nc1cc(C(=O)O)cc(C(=O)O)c1)Nc1cc(C(=O)O)cc(C(=O)O)c1 [Compound 35],CC50 at 3 days,[8],> 100 µM
same,EC50,[9]; [14],> 50 µM
same,activity against HIV-1,[9]; at concentrations up to 50 µM,inactive
same,CC50 at 5 days,[10],> 50 µM
same,EC50,[11]; [15],> 50 µM
same,EC50,[12]; RD cells,8.48 ± 2.34 µM
same,SI selectivity index (CC50/EC50),"[12]; EV-A71 BrCr, RD cells",>12
same,EC50,[12]; [16],8.5 µM
O=C(CCOCC(COCCC(=O)NCCNC(=O)Nc1cc(C(=O)O)cc(C(=O)O)c1)(COCCC(=O)NCCNC(=O)Nc1cc(C(=O)O)cc(C(=O)O)c1)COCCC(=O)NCCNC(=O)Nc1cc(C(=O)O)cc(C(=O)O)c1)NCCNC(=O)Nc1cc(C(=O)O)cc(C(=O)O)c1 [Compound 40],CC50,[4],> 100 µM
same,CC50,[5],> 50 µM
"CN[C@@H]1[C@H](O[C@@H]2OC[C@@H](O)[C@H](O)[C@H]2O)[C@@H](O)[C@H](O[C@H]2c3cc(C)c(C(=O)N[C@H](C)C(=O)O)c(O)c3-c3c(cc4c(c3O)C(=O)c3cc(OC)cc(O)c3C4=O)[C@@H]2O)O[C@@H]1C [PRM-A, pradimicin A]",EC50,[9]; [14],3.3 ± 1.2 µM
same,SI selectivity index (CC50/EC50),"[9]; MT-4 cells, Table 1",>30.3
same,CC50 at 5 days,[10],> 100 µM
same,EC50,[11]; [15],5.9 ± 3.7 µM
"CCOC(=O)c1ccc(OCCC2CCN(c3ccc(C)nn3)CC2)cc1 [Pirodavir, pirodavir, reference compound]",CC50 at 3 days,[13],> 100 µM
same,SI selectivity index (CC50/EC50),[12],>333
same,EC50,[12]; [16],0.3 ± 0.001 µM
dextran sulfate-5000 [DS-5000],EC50,[9]; MT-4 cells,0.07 ± 0.02 µM
same,EC50,[11]; virus-induced cytopathic effect reduced by 50%,0.03 ± 0.01 µM
